# Data reported in patent US8093231B2, “Sulfonylethyl phosphorodiamidates” (Telik, Inc., priority 2004, dated 2012).
# Where two headings read alike, the source gives them in different places.
# Assays:
# [1] = system: MX-1 (breast carcinoma); experiment: Cytotoxicity/growth inhibition assay, MX-1; assay type: cell-based, human; conditions: read-out: IC50 (MX-1)
# Text: (§1) The human cancer cell lines DLD-1 (colorectal adenocarcinoma), LNCap (prostate carcinoma), and OVCAR-3 (ovarian carcinoma) were obtained from the American Type Culture Collection, Manassas, Va., U.S.A., and HL-60 (promyeloid myelocytic leukemia), MX-1 (breast carcinoma), P388, and P388ADR from the National Cancer Institute, Bethesda, Md., U.S.A. Carboplatin, doxorubicin, and melphalan were obtained from Sigma-Aldrich Chemical Company, St. Louis, Mo., U.S.A. The CellTiter-Glo assay kit was obtained from Promega Corporation, Madison, Wis., U.S.A., and the Cellular DNA Cytometric Analysis Reagent Kit from Roche Diagnostics Corporation, Indianapolis, Ind., U.S.A. Lambda DNA was obtained from New England Biolabs, Beverly, Mass., U.S.A., and SYBR-Gold from Molecular Probes, Inc., Eugene, Oreg., U.S.A. The DNeasy Tissue Kit was obtained from Qiagen Inc., Valencia, Calif., U.S.A., and AmpliTaq Gold DNA polymerase and PCR reagents from Applied Biosystems, Foster City, Calif., U.S.A. All products were used in accordance with manufacturer's directions. All assays were conducted in triplicate wells, with dimethyl sulfoxide (DMSO) solvent control. The extent of cell growth was expressed as a percentage of the signal from the solvent control wells.
# (§2) Log-phase cells were trypsinized, collected by centrifugation, and resuspended in a small volume of fresh medium, and the density of viable cells was determined following Trypan Blue staining. Cells were diluted in fresh media (3×10^3 cells/mL for MX-1, 3×10^3 cells/mL for DLD-1, and 6×10^3 cells/mL for LNCap cells), the test compounds (concentrations between 0.1 and 200 μM, dissolved in DMSO, 50 μL) added immediately after dilution to achieve a final DMSO concentration of 0.5%, then the suspensions added at 150 μL/well to 96-well plates, and incubated for several hours to allow attachment in the case of adherent cells. The cells were cultured for approximately three doubling times (3 days for MX-1 and 4 days for DLD-1 and LNCap). The cells were then collected by centrifugation, and 100 μL of the culture supernatant was replaced by the CellTiter-Glo reagent. After incubation for 15 minutes at room temperature, and the plate was read with a luminometer.
# [2] = system: DLD-1 (colorectal adenocarcinoma); experiment: Cytotoxicity/growth inhibition assay, DLD-1; assay type: cell-based, human; conditions: read-out: IC50 (DLD-1)
# Text: as §1, §2
# [3] = MX-1 cells, 3 days culture, CellTiter-Glo, 0.1-200 μM tested
# [4] = DLD-1 cells, 4 days culture, CellTiter-Glo, 0.1-200 μM tested
SMILES,"IC50 [1, 3] [µM]","IC50 [2, 4] [µM]","IC50 ([1]; Homo sapiens, MX1, 72 h) [µM]","IC50 ([2]; Homo sapiens, DLD-1, 96 h) [µM]"
O=C(CS(=O)(=O)CCOP(=O)(N(CCCl)CCCl)N(CCCl)CCCl)N1CCNCC1 [Compound 68A],36.7,18,–,–
O=C(CS(=O)(=O)CCOP(=O)(N(CCCl)CCCl)N(CCCl)CCCl)N1CCN(CCO)CC1 [Compound 69A],34.6,14.1,–,–
CC(C)(C)OC(=O)CC(NC(=O)CS(=O)(=O)CCOP(=O)(N(CCCl)CCCl)N(CCCl)CCCl)C(N)=O (stereo not drawn) [Compound 41A],29.3,10.8,–,–
O=C(CCS(=O)(=O)CCOP(=O)(N(CCCl)CCCl)N(CCCl)CCCl)N1CCC(O)CC1 [Compound 59A],25.4,15.1,–,–
O=C(CCS(=O)(=O)CCOP(=O)(N(CCCl)CCCl)N(CCCl)CCCl)NCCO [Compound 56A],19.3,8.2,–,–
O=C(O)[C@@H]1CCCN1C(=O)CS(=O)(=O)CCOP(=O)(N(CCCl)CCCl)N(CCCl)CCCl [Compound 62A],15,16.5,–,–
CC(NC(=O)CS(=O)(=O)CCOP(=O)(N(CCCl)CCCl)N(CCCl)CCCl)C(=O)OC(C)(C)C (stereo not drawn) [Compound 44A],34.8,11.1,–,–
CC(NC(=O)CS(=O)(=O)CCOP(=O)(N(CCCl)CCCl)N(CCCl)CCCl)C(=O)O (stereo not drawn) [Compound 64A],37.3,22,–,–
CC(C)(C)OC(=O)CN1CCN(C(=O)CS(=O)(=O)CCOP(=O)(N(CCCl)CCCl)N(CCCl)CCCl)CC1 [Compound 47A],15.9,9.3,–,–
NC(=O)CC(NC(=O)CS(=O)(=O)CCOP(=O)(N(CCCl)CCCl)N(CCCl)CCCl)C(=O)O (stereo not drawn) [Compound 65A],31.8,21.4,–,–
O=C(Nc1cccc(CS(=O)(=O)CCOP(=O)(N(CCCl)CCCl)N(CCCl)CCCl)c1)C1CCCNC1 (stereo not drawn) [Compound 148A],≥ 200,≥ 200,–,–
CC(C)C(NC(=O)CS(=O)(=O)CCOP(=O)(N(CCCl)CCCl)N(CCCl)CCCl)C(=O)O (stereo not drawn) [Compound 63A],10,17.2,–,–
"COC(=O)[C@H](CS(=O)(=O)CCOP(=O)(N(CCCl)CCCl)N(CCCl)CCCl)NS(C)(=O)=O [Compound 79A, N-(Methanesulfonyl)-3-[[2-[[bis[bis(2-chloroethyl)amino]phosphinyl]oxy]ethyl]sulfonyl]-L-alanine methyl ester]",–,–,88,26.6
CS(=O)(=O)CCC(NC(=O)CS(=O)(=O)CCOP(=O)(N(CCCl)CCCl)N(CCCl)CCCl)C(=O)O (stereo not drawn) [Compound 66A],29.1,18.8,–,–
CCNC(=O)CCS(=O)(=O)CCOP(=O)(N(CCCl)CCCl)N(CCCl)CCCl [Compound 54A],9.3,7.4,–,–
O=C(O)CCNC(=O)CS(=O)(=O)CCOP(=O)(N(CCCl)CCCl)N(CCCl)CCCl [Compound 39A],30.8,13.3,–,–
O=C(O)CNC(=O)CS(=O)(=O)CCOP(=O)(N(CCCl)CCCl)N(CCCl)CCCl [Compound 40A],32,13,–,–
O=C(CS(=O)(=O)CCOP(=O)(N(CCCl)CCCl)N(CCCl)CCCl)NC1CC1 [Compound 60A],11.3,7.4,–,–
COCCNC(=O)CS(=O)(=O)CCOP(=O)(N(CCCl)CCCl)N(CCCl)CCCl [Compound 48A],4.4,15.5,–,–
CC(C)(C)OC(=O)[C@@H]1CCCN1C(=O)CS(=O)(=O)CCOP(=O)(N(CCCl)CCCl)N(CCCl)CCCl [Compound 42A],7.6,4.7,–,–
COCCNC(=O)CCS(=O)(=O)CCOP(=O)(N(CCCl)CCCl)N(CCCl)CCCl [Compound 57A],18,10.1,–,–
CNC(=O)CCS(=O)(=O)CCOP(=O)(N(CCCl)CCCl)N(CCCl)CCCl [Compound 53A],11.3,8.4,–,–
CN(C)CCNC(=O)c1ccc(CS(=O)(=O)CCOP(=O)(N(CCCl)CCCl)N(CCCl)CCCl)cc1 [Compound 173A],104,37.9,–,–
O=C(CS(=O)(=O)CCOP(=O)(N(CCCl)CCCl)N(CCCl)CCCl)NCCO [Compound 49A],29,11.6,–,–
